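Dose response: 5 concentrations. Exposure: 48 h. Format: 96-well plates. Endpoint: linear interpolation; highest concentration if not reached. The concentration for 50% growth inhibition is given as GI50.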 Activity calls are given as the source filed them. Cut-off read from the data, not from the text of the source: active = GI50 up to about 1.1 µM and inactive = higher.
Legend:
Assay in all cases: DTP human tumour cell line panel, 48 h
SK-MEL-2 = tested on: SK-MEL-2
M14 = tested on: M14
NCI-H23 = tested on: NCI-H23
HT-29 = tested on: HT-29
DMS-273 = tested on: DMS-273
HOP-62 = tested on: HOP-62
NCI-H226 = tested on: NCI-H226
HCC 2998 = tested on: HCC 2998
U-251 = tested on: U-251
Malme-3M = tested on: Malme-3M
HOP-92 = tested on: HOP-92
SNB-19 = tested on: SNB-19
SW-620 = tested on: SW-620
IGROV-1 = tested on: IGROV-1
A549 = tested on: A549
HCT-116 = tested on: HCT-116
OVCAR-8 = tested on: OVCAR-8
K562 = tested on: K562
RPMI-8226 = tested on: RPMI-8226
NCI/ADR-RES = tested on: NCI/ADR-RES

| Compound | GI50 (SK-MEL-2) | GI50 (M14) | GI50 (NCI-H23) | GI50 (HT-29) | GI50 (DMS-273) | GI50 (HOP-62) | GI50 (NCI-H226) | GI50 (HCC 2998) | GI50 (U-251) | GI50 (Malme-3M) | GI50 (HOP-92) | GI50 (SNB-19) | GI50 (SW-620) | GI50 (IGROV-1) | GI50 (A549) | GI50 (HCT-116) | GI50 (OVCAR-8) | GI50 (K562) | GI50 (RPMI-8226) | GI50 (NCI/ADR-RES) |
| --- | --- | --- | --- | --- | --- | --- | --- | --- | --- | --- | --- | --- | --- | --- | --- | --- | --- | --- | --- | --- |
| O=C(CC1(O)C(=O)Nc2c(Cl)cc(Cl)cc21)c1ccc(Br)cc1Br (centres undefined) | 15.2 µM (inactive) | 5.96 µM (inactive) | 8.26 µM (inactive) | 17.7 µM (inactive) | 7.05 µM (inactive) | 20.8 µM (inactive) | 19 µM (inactive) | 16.7 µM (inactive) | 13.1 µM (inactive) | 11.5 µM (inactive) | 2.4 µM (inactive) | 17.2 µM (inactive) | 3.3 µM (inactive) | 16.6 µM (inactive) | 22.2 µM (inactive) | 4.31 µM (inactive) | 7.98 µM (inactive) | 0.946 µM (active) | 2.75 µM (inactive) |  |
| COc1ccc(NC(=O)c2cc(OC)c(OC)c(OC)c2)cc1 | 21.8 µM (inactive) | 88.1 µM (inactive) | 40.7 µM (inactive) | 36.8 µM (inactive) | 29.1 µM (inactive) | 33 µM (inactive) | > 78.3 µM (inactive) | 42.2 µM (inactive) | 39.6 µM (inactive) | 41.6 µM (inactive) | > 100 µM (inactive) | > 100 µM (inactive) | 39.8 µM (inactive) | 66.1 µM (inactive) | 62.1 µM (inactive) | 36.7 µM (inactive) | 74.6 µM (inactive) | 24.7 µM (inactive) | 39.5 µM (inactive) |  |
| CCCN(CCCCC(NC(C)=O)C(=O)NCc1ccccc1)C(=O)N(CCCl)N=O (centres undefined) | > 100 µM (inactive) | 59.6 µM (inactive) | 49.9 µM (inactive) | > 96.6 µM (inactive) | 72.6 µM (inactive) | 25.5 µM (inactive) | > 77.8 µM (inactive) | > 58.9 µM (inactive) | 15.8 µM (inactive) | > 100 µM (inactive) | 43.8 µM (inactive) | 31.9 µM (inactive) | > 97.1 µM (inactive) | > 92.3 µM (inactive) | 32.3 µM (inactive) | 60.3 µM (inactive) | > 89.7 µM (inactive) | 65.2 µM (inactive) | 98.2 µM (inactive) | 31.6 µM (inactive) |
| Oc1cc(-c2cccc(F)c2)nc2cc3c(cc12)OCO3 | 0.0308 µM (active) | 0.0402 µM (active) | 0.294 µM (active) |  | 0.349 µM (active) | 0.165 µM (active) |  | 0.0705 µM (active) | 0.0757 µM (active) | 0.0454 µM (active) | 0.272 µM (active) | 0.124 µM (active) | 0.0356 µM (active) | 0.102 µM (active) | 0.119 µM (active) | 0.0405 µM (active) | 0.0347 µM (active) | 0.0653 µM (active) | 0.0581 µM (active) | 0.0199 µM (active) |
| CN(N=O)C(=O)N(N)CCCCC(NC(=O)OCc1ccccc1)C(=O)OCc1ccccc1 (centres undefined) | 91.6 µM (inactive) | 23 µM (inactive) | 14.6 µM (inactive) | 79.6 µM (inactive) | 32.2 µM (inactive) | 9.75 µM (inactive) | 22.2 µM (inactive) | 18.2 µM (inactive) | 38.9 µM (inactive) | 40.1 µM (inactive) | 10.7 µM (inactive) | > 100 µM (inactive) | 65.9 µM (inactive) | 49.2 µM (inactive) | 81.8 µM (inactive) | 29.8 µM (inactive) | 33.7 µM (inactive) | 45.4 µM (inactive) | > 100 µM (inactive) |  |
| CC1=C(C(=O)NCc2ccccc2)C(c2ccccc2O)C(C(=O)NCc2ccccc2)=C(C)N1 | 15.4 µM (inactive) | 17.9 µM (inactive) | 17.1 µM (inactive) | 19.5 µM (inactive) | 14.6 µM (inactive) | 19.9 µM (inactive) | 16.6 µM (inactive) | 21 µM (inactive) | 15.5 µM (inactive) | 15.7 µM (inactive) | 22.4 µM (inactive) | 19.2 µM (inactive) | 17.7 µM (inactive) | 19.5 µM (inactive) | 20.8 µM (inactive) | 14.4 µM (inactive) | 18.7 µM (inactive) | 36.1 µM (inactive) | 29.6 µM (inactive) |  |
